Laboratory results reported in the supplement of paper PMC5844555.

Key:
Experiment in all cases: 3' UTR reporter interaction score (median-centred robust z-score of log2 firefly/Renilla activity); higher = less repression of the 3' UTR reporter
Details in all cases: HEK293T; 48 h
BRCA2 = test system: BRCA2
Procedure, shortened: (§1)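 HEK293T cells (10,000/well, 96-well plates) were co-transfected using DharmaFECT Duo with 100 ng firefly luc2P reporter carrying the gene's 3' UTR, 20 ng Renilla pRL-TK control and 2.5 pmol miRNA mimic. Dual-luciferase activities were read 48 h post-transfection. The interaction score is the log-transformed firefly/Renilla ratio as a per-plate robust z-score (median, median absolute deviation), median-centred per miRNA and averaged over at least two independent screens; more negative indicates interaction.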

EZH2 = test system: EZH2
Procedure, shortened: as §1

FBXW7 = test system: FBXW7
Procedure, shortened: as §1

HRAS = test system: HRAS
Procedure, shortened: as §1

MYB = test system: MYB
Procedure, shortened: as §1

MYCN = test system: MYCN
Procedure, shortened: as §1

MYC = test system: MYC
Procedure, shortened: as §1

MYT1L = test system: MYT1L
Procedure, shortened: as §1

NOTCH1 = test system: NOTCH1
Procedure, shortened: as §1

PHF6 = test system: PHF6
Procedure, shortened: as §1

PHOX2B = test system: PHOX2B
Procedure, shortened: as §1

RB1 = test system: RB1
Procedure, shortened: as §1

TP53 = test system: TP53
Procedure, shortened: as §1

ZEB2 = test system: ZEB2
Procedure, shortened: as §1

Sequence	3' UTR reporter interaction score (BRCA2)	3' UTR reporter interaction score (EZH2)	3' UTR reporter interaction score (FBXW7)	3' UTR reporter interaction score (HRAS)	3' UTR reporter interaction score (MYB)	3' UTR reporter interaction score (MYCN)	3' UTR reporter interaction score (MYC)	3' UTR reporter interaction score (MYT1L)	3' UTR reporter interaction score (NOTCH1)	3' UTR reporter interaction score (PHF6)	3' UTR reporter interaction score (PHOX2B)	3' UTR reporter interaction score (RB1)	3' UTR reporter interaction score (TP53)	3' UTR reporter interaction score (ZEB2)
AAAAGCUGGGUUGAGAGGGCGAA	0.138	-2.65	0.0632	-0.583	1.19	0.121	0.0971	-0.165	0.666	0.0922	-1.64	0.499	-0.479	1.15
AAAAGUGCUUACAGUGCAGGUAGC	0.703	-0.783	-0.263	0.892	-0.0116	-0.211	0.278	-1.75	0.451	1.56	-0.496	0.176	-0.24	0.747
AAAAUGGUUCCCUUUAGAGUGUU	-1.38	0.888	0.697	0.747	-0.486	0.195	0.494	0.818	-2.3	0.573	-0.183	-2.85	-1.35	-1.19
AAACAAACAUGGUGCACUUCUUU	-0.147	1.82	-0.367	-0.444	0.209	0.437	0.601	-1.89	0.581	-1.41	0.00827	1.09	-0.293	-0.365
AAACCUGUGUUGUUCAAGAGUC	1.31	0.928	0.0167	0.374	-0.47	-0.75	-0.2	-0.496	0.0529	-0.148	-2.54	-0.803	0.0666	-1.07
AAACUACUGAAAAUCAAAGAU	0.536	-0.0901	-0.0213	-0.566	0.63	-0.411	0.0375	-0.7	-0.667	0.0968	-0.331	0.321	0.261	-1.71
AAACUCUACUUGUCCUUCUGAGU	1.32	-0.108	2.09	0.16	0.312	-0.333	-0.658	-0.888	0.753	-0.863	0.571	0.409	0.757	-1.55
AAAGACAUAGGAUAGAGUCACCUC	-0.417	-0.299	1.01	-0.101	0.438	-0.0475	-0.142	-1.82	-1.33	-0.548	0.476	-0.442	0.557	0.2
AAAGCGCUUCCCUUCAGAGUGU	-0.304	-0.357	1.07	-0.152	0.692	-0.904	-0.758	-0.332	0.385	0.134	1.41	-1.21	0.336	-0.49
AAAGCGCUUCCCUUUGCUGGA	-0.221	0.396	0.199	-0.256	-0.491	-0.601	-0.245	0.0314	0.538	0.797	0.212	-0.977	-1.12	0.684
AAAGCGCUUCUCUUUAGAGGA	-0.521	-0.591	0.112	0.681	-0.0819	-0.629	-0.0856	-0.414	0.581	-0.164	0.331	-0.785	-0.0242	0.196
AAAGUAGCUGUACCAUUUGC	0.0379	-0.677	0.57	-1.6	1.14	0.676	-0.314	0.719	1.58	-0.00285	-0.926	-0.735	0.1	1.39
AAAGUGCAUCCUUUUAGAGGUUU	-0.233	-0.589	0.961	-0.233	-1.97	0.904	-0.372	-1.16	1.67	-0.0516	0.434	-0.148	0.429	0.526
AAAGUGCAUCCUUUUAGAGUGUUAC	-0.464	-0.596	0.956	0.648	-1.8	1.43	0.046	-1.2	2.14	-0.315	-0.251	0.0975	1.22	0.599
AAAGUGCAUCUUUUUAGAGGAU	-0.243	-0.581	0.857	0.493	-2.04	1.77	0.685	-0.436	0.996	-0.0249	0.606	-0.176	1.24	-0.325
AAAGUGCCUCCUUUUAGAGUGU	-0.0588	-0.239	0.988	0.107	-0.416	1.27	0.329	0.764	0.0165	1.02	-1.07	-0.21	-0.0121	0.00481
AAAGUGCUGCGACAUUUGAGCGU	0.603	-1.36	0.296	0.79	-1.18	0.612	0.745	-0.68	1.03	1.58	0.221	1.06	-1.1	-0.121
AAAGUGCUUCCCUUUGGACUGU	0.671	-0.72	1.67	0.194	-1.07	-0.799	-0.227	-1.48	1.13	1.36	0.0276	1.36	0.0148	-0.113
AAAGUGCUUCCUUUUAGAGGG	-0.12	-1.28	0.755	0.261	-0.541	-0.401	0.194	-0.373	1.06	0.188	1.35	0.0746	0.0995	0.554
